Where a SMILES comes first, the peptide text is derived from it. The star is where a group is joined. Cbz = O=C(OCc1ccccc1)*; CH2F = FC*
Experiments:
Assay type in all cases: cell-based, human
[1] = tested on: THP-1, Molm13, MV4 AML cells; assay: AML cell death / growth in plates coated with anti-LILRB3 (PI staining); settings: QNZ 10 μM
Protocol: Cell culture. THP-1, MV4-11, Molm13, U937, C1498 and 293T cells were purchased from ATCC. AML cell lines were cultured in RPMI-1640 with 10% FBS. Human anti-LILRB3 with the N297A mutation was coated onto the plate to activate LILRB3 signaling, and plates coated with human IgG (N297A) were used as controls. Cells infected with virus were cultured for at least an additional 3 weeks before analysis of LILRB3 signaling. Dead cells were identified using PI staining. Primary human T cells were isolated by autoMACS from donor PBMCs, stimulated with anti-CD3 and anti-CD28, and cultured in RPMI-1640 in the presence of IL-2. For the cytotoxic T lymphocyte assay, human AML cells were stained with CFSE and mixed at different ratios with activated T cells. After 10 hours, the percentage of PI-positive CFSE-stained AML cells was determined by FACS.

[2] = tested on: NF-κB signaling; assay: NF-κB reporter assay in THP-1-Lucia NF-κB cells; settings: for NF-κB reporter activity activated by LILRB3: THP-1-Lucia cells activated with anti-LILRB3 antibody
Protocol: (§1) NF-κB reporter assay and LILRB3 chimeric receptor reporter assay. THP-1-Lucia™ NF-κB cells were purchased from InvivoGen. Human anti-LILRB3 antibody with the N297A mutation was coated onto the plate to activate LILRB3 signaling, and plates coated with hIgG (N297A) were used as the control. The activation of NF-κB signaling was evaluated by monitoring luciferase signal. Infected THP-1 reporter cells were cultured for an additional month before stimulation with anti-LILRB3. For the NF-κB reporter assay conducted in 293T cells, an NF-κB-driven firefly luciferase reporter plasmid co-transfected with a plasmid encoding CMV-driven Renilla luciferase along with plasmids expressing LILRB3, TRAF2, or cFLIP were transfected into cells. The luciferase activity was detected using the Dual-Luciferase® Reporter (DLR™) Assay System (Promega). LILRB3 chimeric receptor reporter cells were constructed as the inventors described (Deng et al., 2014; 2018; Kang et al., 2015), with LILRB3-ECD fused with the transmembrane and intracellular domains of paired immunoglobulin-like receptor β, which signals through the adaptor DAP-12 to activate the NFAT promoter.

[3] = tested on: NF-κB signaling; assay: NF-κB reporter assay in 293T cells
Protocol: as §1

| SMILES | effect of LILRB3 on survival of THP-1 cells [1] | NF-κB reporter activity activated by LILRB3 [2] | ability of LILRB3 to stimulate NF-κB through TRAF2 ([3]; 293T cells co-transfected with TRAF2 or LILRB3) | LILRB3-induced NF-κB activity in 293T cells ([3]; tet-on cFLIP, 0.2 ug/ml of dox) | LILRB3-induced NF-κB at low concentration of LPS ([2]; THP-1 cells) |
| --- | --- | --- | --- | --- | --- |
| Nc1ccc2ncnc(NCCc3ccc(Oc4ccccc4)cc3)c2c1 [QNZ] | partially abolished the effect of LILRB3 on survival of THP-1 cells |  |  |  |  |
| CC[C@H](C)[C@H](NC(=O)OCc1ccccc1)C(=O)N[C@@H](CCC(=O)OC)C(=O)N[C@H](C(=O)N[C@@H](CC(=O)OC)C(=O)CF)[C@@H](C)O [z-IETD-FMK] (Cbz-IE(OMe)TD(OMe)-CH2F) |  | inhibited the NF-κB reporter activity |  |  |  |
| COC(=O)C[C@H](NC(=O)[C@H](C)NC(=O)[C@@H](NC(=O)OCc1ccccc1)C(C)C)C(=O)CF [z-VAD-FMK] (Cbz-Val-Ala-Asp(OMe)-CH2F) |  | inhibited the NF-κB reporter activity | blocked the ability of LILRB3 to stimulate NF-κB through TRAF2 | blocked LILRB3-induced NF-κB activity | blocked LILRB3-induced NF-κB |
